Data from patent publication US9855265B2, “Methods for treating cancer with TrkA receptor tyrosine kinase antagonists” (VM Oncology LLC, priority 2014, dated 2018).

Tests used:
[1] = molecular target: ARAF (Homo sapiens, UniProt P10398); assay: radiometric kinase assay, other kinases: ARAF; type: biochemical; details: duplicate
Method: (§1) Compound inhibition in a radiometric based mixed micelle assay: In a final reaction volume of 25 μL, TrkA (h) ([…]) is incubated with the kinase reaction buffer (20 mM HEPES (pH 7.5), 10 mM MgCl2, 1 mM EGTA, 0.02% Brij 35, 0.02 mg/ml BSA, 0.1 mM Na3VO4, 2 mM DTT, 1% DMSO), 0.2 mg/ml substrate PolyEY(4:1) and […], and [^33P-ATP](specific activity approx. 500 cpm/pmol, concentration as required). The reaction is initiated by the addition of the MgATP mix. After incubation for at least 40 minutes at room temperature, the reaction is stopped by the addition of 5 μL of a 3% phosphoric acid solution. 10 μL of the reaction is then spotted onto a P30 filtermat and washed three times for 5 minutes in 75 mM phosphoric acid and once in methanol prior to drying and scintillation counting. TrkA: Recombinant Human Cytoplasmic Domain (amino acids 441-796), Histidine-tagged, expressed in insect cells. Activated in vitro via auto-phosphorylation. Mw=42.8 kDa. Substrates for kinases: poly(EY) for TRKA; poly(EY)(4:1) with 2 mM MnCl2, average Mw=16 kDa Standard conditions (unless otherwise specified): 30 nM TRKA, 0.2 mg/ml poly(EY)+2 mM MnCl2, and 10 μM ([γ-^33P]) ATP. Using the similar assay condition with other kinases of recombinant human cytoplasmic domain, the activities of other kinases could be also measured.

[2] = molecular target: T1, c-MET (Homo sapiens, UniProt P08581); assay: radiometric kinase assay, other kinases: c-MET; type: biochemical; details: duplicate
T1 construct: other kinases of recombinant human cytoplasmic domain
Method: as §1

[3] = molecular target: T2, FLT1 (Homo sapiens, UniProt P17948); assay: radiometric kinase assay, other kinases: FLT1; type: biochemical; details: duplicate
T2 construct: other kinases of recombinant human cytoplasmic domain
T2 sequence (P17948 781-1338 limits assumed): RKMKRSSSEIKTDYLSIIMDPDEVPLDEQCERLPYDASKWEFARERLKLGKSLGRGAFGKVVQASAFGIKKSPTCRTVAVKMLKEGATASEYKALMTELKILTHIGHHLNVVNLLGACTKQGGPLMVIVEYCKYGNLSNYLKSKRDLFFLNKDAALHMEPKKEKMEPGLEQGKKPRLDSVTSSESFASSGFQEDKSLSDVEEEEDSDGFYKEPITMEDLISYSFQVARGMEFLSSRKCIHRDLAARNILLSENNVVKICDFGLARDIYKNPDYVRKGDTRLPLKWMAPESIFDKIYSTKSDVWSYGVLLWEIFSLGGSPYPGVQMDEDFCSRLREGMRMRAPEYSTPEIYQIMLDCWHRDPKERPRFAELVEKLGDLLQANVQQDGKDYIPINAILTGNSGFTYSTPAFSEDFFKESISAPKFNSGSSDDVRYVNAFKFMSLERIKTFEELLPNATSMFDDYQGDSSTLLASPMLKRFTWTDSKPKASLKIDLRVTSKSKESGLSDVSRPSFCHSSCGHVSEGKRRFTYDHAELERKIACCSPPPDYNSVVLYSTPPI
Method: as §1

[4] = molecular target: T3, IR (Homo sapiens, UniProt P06213); assay: radiometric kinase assay, other kinases: IR; type: biochemical; details: duplicate
T3 construct: other kinases of recombinant human cytoplasmic domain
T3 sequence (P06213 980-1382 limits assumed): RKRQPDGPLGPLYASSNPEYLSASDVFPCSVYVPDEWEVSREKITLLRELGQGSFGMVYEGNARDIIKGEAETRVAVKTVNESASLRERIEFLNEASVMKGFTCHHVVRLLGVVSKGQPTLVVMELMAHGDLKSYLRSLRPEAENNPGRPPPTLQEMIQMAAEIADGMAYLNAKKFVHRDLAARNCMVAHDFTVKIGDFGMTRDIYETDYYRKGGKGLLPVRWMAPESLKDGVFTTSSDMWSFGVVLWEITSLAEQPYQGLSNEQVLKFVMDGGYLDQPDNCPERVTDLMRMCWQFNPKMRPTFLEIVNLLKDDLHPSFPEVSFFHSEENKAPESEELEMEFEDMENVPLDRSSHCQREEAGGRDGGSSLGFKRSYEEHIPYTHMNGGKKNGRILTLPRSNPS
Method: as §1

[5] = molecular target: T4, PDGFRa (Homo sapiens, UniProt P16234); assay: radiometric kinase assay, other kinases: PDGFRa; type: biochemical; details: duplicate
T4 construct: other kinases of recombinant human cytoplasmic domain
T4 sequence (P16234 550-1089 limits assumed): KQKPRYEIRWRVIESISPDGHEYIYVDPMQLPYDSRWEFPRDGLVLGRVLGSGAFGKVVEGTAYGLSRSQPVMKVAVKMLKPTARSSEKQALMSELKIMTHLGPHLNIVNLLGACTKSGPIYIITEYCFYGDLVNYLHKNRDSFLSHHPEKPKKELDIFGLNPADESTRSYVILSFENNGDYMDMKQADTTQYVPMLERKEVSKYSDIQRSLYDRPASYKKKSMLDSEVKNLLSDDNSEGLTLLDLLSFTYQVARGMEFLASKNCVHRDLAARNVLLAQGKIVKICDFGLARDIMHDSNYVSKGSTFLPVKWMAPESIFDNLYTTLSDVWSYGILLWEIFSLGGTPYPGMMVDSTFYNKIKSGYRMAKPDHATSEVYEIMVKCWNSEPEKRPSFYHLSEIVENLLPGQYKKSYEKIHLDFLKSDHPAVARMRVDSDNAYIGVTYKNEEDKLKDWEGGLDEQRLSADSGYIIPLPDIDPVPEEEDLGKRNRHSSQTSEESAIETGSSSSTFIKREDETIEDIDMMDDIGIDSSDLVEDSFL
Method: as §1

[6] = molecular target: PKCalpha (Homo sapiens, UniProt P17252); assay: radiometric kinase assay, other kinases: PKCalpha; type: biochemical; details: duplicate
Method: as §1

[7] = molecular target: PKCbetaII (Homo sapiens, UniProt P05771); assay: radiometric kinase assay, other kinases: PKCbetaII; type: biochemical; details: duplicate
Method: as §1

[8] = molecular target: PKCepsilon (Homo sapiens, UniProt Q02156); assay: radiometric kinase assay, other kinases: PKCepsilon; type: biochemical; details: duplicate
Sequence of PKCepsilon (Q02156 whole entry): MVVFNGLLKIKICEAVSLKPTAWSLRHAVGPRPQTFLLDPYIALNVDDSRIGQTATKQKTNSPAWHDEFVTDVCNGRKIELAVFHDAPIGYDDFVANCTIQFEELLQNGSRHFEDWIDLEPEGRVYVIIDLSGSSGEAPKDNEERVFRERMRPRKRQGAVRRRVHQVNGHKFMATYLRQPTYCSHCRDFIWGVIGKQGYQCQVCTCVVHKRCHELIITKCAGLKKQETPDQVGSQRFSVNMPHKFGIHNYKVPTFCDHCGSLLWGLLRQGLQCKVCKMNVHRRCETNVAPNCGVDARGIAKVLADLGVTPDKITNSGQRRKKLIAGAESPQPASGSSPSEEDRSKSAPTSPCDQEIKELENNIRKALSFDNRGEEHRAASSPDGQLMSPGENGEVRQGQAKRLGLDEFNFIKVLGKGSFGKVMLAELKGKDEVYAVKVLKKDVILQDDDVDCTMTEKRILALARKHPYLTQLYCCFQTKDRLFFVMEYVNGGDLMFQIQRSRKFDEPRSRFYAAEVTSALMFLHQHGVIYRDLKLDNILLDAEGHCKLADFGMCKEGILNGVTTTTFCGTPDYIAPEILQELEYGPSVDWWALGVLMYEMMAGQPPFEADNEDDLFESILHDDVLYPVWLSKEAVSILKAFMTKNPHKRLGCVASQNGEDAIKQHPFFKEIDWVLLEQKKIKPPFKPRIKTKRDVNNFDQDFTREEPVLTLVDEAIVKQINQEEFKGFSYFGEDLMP
Method: as §1

[9] = molecular target: PKCeta (Homo sapiens, UniProt P24723); assay: radiometric kinase assay, other kinases: PKCeta; type: biochemical; details: duplicate
Sequence of PKCeta (P24723 whole entry): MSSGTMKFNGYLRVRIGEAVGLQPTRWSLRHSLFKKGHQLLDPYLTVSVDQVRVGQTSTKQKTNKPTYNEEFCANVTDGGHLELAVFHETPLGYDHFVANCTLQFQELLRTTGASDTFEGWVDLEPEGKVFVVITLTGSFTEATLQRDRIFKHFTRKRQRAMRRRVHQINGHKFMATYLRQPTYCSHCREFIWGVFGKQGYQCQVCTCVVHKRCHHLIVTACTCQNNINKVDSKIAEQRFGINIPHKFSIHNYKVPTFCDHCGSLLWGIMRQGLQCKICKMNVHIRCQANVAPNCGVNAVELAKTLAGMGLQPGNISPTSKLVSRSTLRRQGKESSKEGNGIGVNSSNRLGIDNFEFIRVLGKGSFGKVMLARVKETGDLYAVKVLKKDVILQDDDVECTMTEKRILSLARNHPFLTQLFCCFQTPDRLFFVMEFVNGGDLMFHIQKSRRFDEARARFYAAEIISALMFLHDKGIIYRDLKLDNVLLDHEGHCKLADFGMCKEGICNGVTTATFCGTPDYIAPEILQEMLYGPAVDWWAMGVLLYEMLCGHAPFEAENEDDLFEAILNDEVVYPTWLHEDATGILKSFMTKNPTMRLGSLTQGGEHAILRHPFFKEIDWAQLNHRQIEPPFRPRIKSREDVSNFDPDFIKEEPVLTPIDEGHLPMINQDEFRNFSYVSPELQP
Method: as §1

[10] = molecular target: PKCgamma (Homo sapiens, UniProt P05129); assay: radiometric kinase assay, other kinases: PKCgamma; type: biochemical; details: duplicate
Method: as §1

[11] = molecular target: PKCmu/PKD1 (Homo sapiens, UniProt Q15139); assay: radiometric kinase assay, other kinases: PKCmu/PKD1; type: biochemical; details: duplicate
Method: as §1

[12] = molecular target: T5, RET (Homo sapiens, UniProt P07949); assay: radiometric kinase assay, other kinases: RET; type: biochemical; details: duplicate
T5 construct: other kinases of recombinant human cytoplasmic domain
Method: as §1

[13] = tested on: AsPC-1 human pancreatic cancer cells; assay: Cell Viability and Proliferation Assay, AsPC-1; type: cell-based; details: ASPC1, after 24 incubation
Method: (§2) Cell Viability and Proliferation Assays. To assess the chemosensitivity of tumor cells, cell viability is measured by CellTiter-Glo® Luminescent Cell Viability Assay (Promega; Wis., USA) per the manufacturer's instruction. Briefly, 5×10^3 to 7×10^5 cells/ml are cultured in sterile 96-well plates in the presence of increasing concentrations of the drugs (test article, 0 to 100 μM), or vehicle in RPMI medium. The plates are then incubated for 24 to 96 h, and then 100 μl of CellTiter-Glo reagent is added to lyse the cells. After a 10-min incubation at room temperature, the luminescence is recorded in a luminometer with an integration time of 1 s per well. The luminescence signals for the drug-treated cells are normalized by the luminescence signal obtained from vehicle-treated cells. As an alternative method to quantitate cell viability, the trypan blue exclusion dye method was used. Vehicle- or drug-treated cells were assayed by adding trypan blue solution (0.4% in phosphate-buffered saline [PBS]) to the culture medium. After 3 min, the number of dead cells that retained the dye is compared to the total number of cells to calculate cell viability. GraphPad Prism 5 software is used to calculate IC50 and plot effect-dose curve of drugs. Multiplate reader: EnVision 2104 (PerkinElmer). % of control variability=100*[(X(drug_treated)−L(baseline))/(H(vehicle_control)−L(baseline))]. […]

[14] = tested on: Panc-1 human pancreatic cancer cells; assay: Cell Viability and Proliferation Assay, Panc-1; type: cell-based; details: after 24 incubation
Method: as §2

[15] = tested on: SK-HEP-1 human liver cancer cells; assay: Cell Viability and Proliferation Assay, SK-HEP-1; type: cell-based; details: SK-HEP1, after 24 incubation
Method: as §2

[16] = tested on: carrageenan-induced pain in rats; assay: Carrageenan Pain Model; type: in vivo, Sprague-Dawley rats; details: carrageenan rat model, 150 mg/kg oral dose, compared to indomethacin
Method: Carrageenan Pain Model The carrageenan model is a fast, reliable model used to assess the ability of analgesics to block inflammatory pain. The analgesic effects of test article combinations on pain generation are assayed using the carrageenan-induced pain model in rats. Adult male Sprague-Dawley rats are administered study drugs orally (vehicle, compounds of present disclosure) once daily for 2 days (day −2 and day −1) and 30 minutes prior to the carrageenan injection on day 0 (time=0). For the carrageenan injection, animals are lightly anesthetized and 0.1 ml of 2% carrageenan is injected into the plantar surface of the right hind paw. The positive control indomethacin (30 mg/kg, p.o.) is administered orally immediately before the carrageenan injection. Paw volumes (right and left) are measured using a Plethysmometer before drug administration on day −2 and serve as a baseline measurement. The paw volumes are measured again two hours post carrageenan injection. The degree of mechanical allodynia is measured by a blinded observer using Von Frey filaments applied to the plantar surface of the hind paws in an increasing numerical order. Each filament increases the force applied on the paw. The filaments are applied until animal paw withdrawal is achieved. […] Results are expressed as mean change from baseline across five timepoints post carrageenan injection.

[17] = molecular target: TrkC (Homo sapiens, UniProt Q16288); assay: radiometric kinase assay, other kinases: TrkC; type: biochemical; parameters: other kinases of recombinant human cytoplasmic domain; details: duplicate
Method: as §1

Sequence of ARAF (P10398 whole entry): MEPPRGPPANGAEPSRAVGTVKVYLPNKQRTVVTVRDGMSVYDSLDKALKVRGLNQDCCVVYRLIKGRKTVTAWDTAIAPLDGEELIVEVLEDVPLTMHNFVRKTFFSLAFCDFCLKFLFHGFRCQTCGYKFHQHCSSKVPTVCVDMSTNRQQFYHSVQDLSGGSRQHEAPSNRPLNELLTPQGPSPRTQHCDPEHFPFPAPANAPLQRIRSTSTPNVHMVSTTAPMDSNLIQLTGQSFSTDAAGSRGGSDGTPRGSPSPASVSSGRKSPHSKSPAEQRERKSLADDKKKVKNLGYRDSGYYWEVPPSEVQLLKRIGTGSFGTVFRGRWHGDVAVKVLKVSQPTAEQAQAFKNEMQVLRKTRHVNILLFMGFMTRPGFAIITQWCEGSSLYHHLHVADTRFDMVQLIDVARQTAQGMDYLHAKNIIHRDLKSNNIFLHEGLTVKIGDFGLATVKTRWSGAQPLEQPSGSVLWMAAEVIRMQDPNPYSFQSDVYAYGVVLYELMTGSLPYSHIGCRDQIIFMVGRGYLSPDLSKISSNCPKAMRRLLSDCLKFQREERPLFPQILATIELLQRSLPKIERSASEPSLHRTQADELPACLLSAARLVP

**Q.** For `Nc1c(N2CCN(C3CCCCC3)CC2)cc(Nc2ccc(C(=O)O)cc2)c2c1C(=O)c1ccccc1C2=O` [Compound 12, 4-{[4-amino-3-(4-cyclohexylpiperazin-1-yl)-9,10-dioxo-9,10-dihydroanthracen-1-yl]amino}benzoic acid], which IC50 [1] is on record?
**A.** > 10 µM

**Q.** And the IC50 [2]?
**A.** > 10 µM

**Q.** What about the IC50 [3] of the same compound?
**A.** > 10 µM

**Q.** What about the IC50 [4] of the same compound?
**A.** > 10 µM

**Q.** And the IC50 [5]?
**A.** > 10 µM

**Q.** And the IC50 [6]?
**A.** > 10 µM

**Q.** What about the IC50 [7] of the same compound?
**A.** > 10 µM

**Q.** And the IC50 [8]?
**A.** > 10 µM

**Q.** What about the IC50 [9] of the same compound?
**A.** > 10 µM

**Q.** What about the IC50 [10] of the same compound?
**A.** > 10 µM

**Q.** And the IC50 [11]?
**A.** > 10 µM

**Q.** What about the IC50 [12] of the same compound?
**A.** > 10 µM

**Q.** And the IC50 [13]?
**A.** 2 to 5 µM

**Q.** And the IC50 [14]?
**A.** 2 to 5 µM

**Q.** And the IC50 [15]?
**A.** ~5 µM

**Q.** And the relative analgesic effect [16]?
**A.** about 85%

**Q.** And the IC50 [17]?
**A.** > 10 µM
